Our source for the IC50 values is US12064426B2, “Selective inhibitors of ROCK1 and ROCK2 protein kinases and uses thereof” (GENOSCO Inc., priority 2021, dated 2024).

By IC50 is commonly meant the midpoint of a concentration-inhibition curve.

SMILES strings stand for the structures.

Assay [1] addresses T1, Recombinant ROCK1 (amino acids 1-477) (Homo sapiens, UniProt Q13464).
T1 construct: Recombinant ROCK1 (amino acids 1-477); by word order, ROCK1 from Carna Biosciences
As to the kind of experiment: ROCK inhibition assay, LANCE Ultra TR-FRET kinase assay (ROCK1). The format is biochemical. The conditions noted are these: 1 μM ATP, 50 nM ULight-CREBtide substrate. In outline: (§1)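 Reaction buffer 50 mM HEPES pH 7.5, 10 mM MgCl2, 1 mM EGTA, 2 mM DTT; kinase, ULight-CREBtide (50 nM) and ATP (ROCK1 1 μM, ROCK2 4 μM) react 1 h at room temperature. Phospho-Ser133 detected by europium antibody after 10 mM EDTA stop, TR-FRET ex 320 nm; IC50 calculated.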
(In general: In TR-FRET formats the signal depends on donor and acceptor labels being close together.)

For assay [2], the target named is T2, Recombinant ROCK2 (amino acids 5-554) (Homo sapiens, UniProt O75116).
T2 construct: ROCK2 (amino acids 5-554); by word order, ROCK2 from SignalChem
Briefly: ROCK inhibition assay, LANCE Ultra TR-FRET kinase assay (ROCK2). The assay is classed as biochemical. Conditions: 4 μM ATP, 50 nM ULight-CREBtide substrate. In outline:
as §1

T2 sequence (O75116 5-554): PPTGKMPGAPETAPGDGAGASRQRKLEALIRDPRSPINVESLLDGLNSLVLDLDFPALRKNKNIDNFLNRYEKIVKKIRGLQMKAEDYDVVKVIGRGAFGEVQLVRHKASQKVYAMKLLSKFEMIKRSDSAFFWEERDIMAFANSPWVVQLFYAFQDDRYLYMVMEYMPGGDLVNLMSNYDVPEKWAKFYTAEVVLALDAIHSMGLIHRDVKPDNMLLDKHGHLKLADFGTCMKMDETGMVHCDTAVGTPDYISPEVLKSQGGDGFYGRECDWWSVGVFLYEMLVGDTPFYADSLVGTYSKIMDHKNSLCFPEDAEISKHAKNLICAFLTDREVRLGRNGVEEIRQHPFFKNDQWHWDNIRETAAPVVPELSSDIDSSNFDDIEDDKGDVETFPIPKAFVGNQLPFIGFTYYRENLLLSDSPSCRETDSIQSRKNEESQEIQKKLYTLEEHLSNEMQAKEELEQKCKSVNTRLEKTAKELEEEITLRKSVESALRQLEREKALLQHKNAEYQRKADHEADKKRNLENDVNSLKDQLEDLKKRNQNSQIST
T1 sequence (Q13464 1-477): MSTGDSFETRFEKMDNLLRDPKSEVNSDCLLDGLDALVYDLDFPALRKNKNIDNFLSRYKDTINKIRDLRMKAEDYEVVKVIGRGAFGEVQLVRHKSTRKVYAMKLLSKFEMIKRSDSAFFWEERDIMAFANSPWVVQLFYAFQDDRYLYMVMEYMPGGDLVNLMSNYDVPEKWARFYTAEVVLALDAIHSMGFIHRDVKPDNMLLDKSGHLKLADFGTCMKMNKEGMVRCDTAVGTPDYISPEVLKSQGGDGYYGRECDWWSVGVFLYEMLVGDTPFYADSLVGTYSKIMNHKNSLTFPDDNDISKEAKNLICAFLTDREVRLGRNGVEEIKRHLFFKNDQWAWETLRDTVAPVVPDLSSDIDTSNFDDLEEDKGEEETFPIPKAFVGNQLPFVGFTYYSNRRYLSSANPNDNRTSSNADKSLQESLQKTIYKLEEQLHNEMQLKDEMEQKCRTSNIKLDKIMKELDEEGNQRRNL

Turning to `COc1cccc(Cn2cnc3cc(-c4c[nH]nc4C(F)F)ccc3c2=O)c1` [Compound 359], the IC50 in assay [1] was 11 to 100 nM; in assay [2] it was less than 10 nM.

As to `CNC(=O)c1cc(F)cc(Cn2ccc3cc(-c4c[nH]nc4C(F)F)ncc3c2=O)c1` [Compound 252], the IC50 in assay [1] is 11 to 100 nM; in assay [2], less than 10 nM.

With `Cc1nocc1-c1ccc2c(=O)n(Cc3cc(F)cc(C(=O)NC4CCOCC4)c3)ccc2c1` [Compound 148], the IC50 in assay [1] was 101 to 500 nM; in assay [2] it was 10 to 100 nM.

As to `C[C@H](c1cccc(C(=O)NC2CC2)c1)n1cnc2cc(-c3cn[nH]c3Br)ccc2c1=O` [Compound 515], the IC50 in assay [1] is 11 to 100 nM; in assay [2], less than 10 nM.

Consider `CO[C@H]1CC[C@H](NC(=O)c2cc(F)cc(Cn3ccc4cc(-c5conc5C)ccc4c3=O)c2)CC1` [Compound 141], for which the IC50 in assay [1] was more than 501 nM; in assay [2], 100 to 500 nM.

Consider `C[C@H](c1cccc(C(=O)NCCO)c1)n1cnc2cc(-c3cn[nH]c3C(F)(F)F)ccc2c1=O` [Compound 453], for which the IC50 was in the range of 11 to 100 nM in assay [1] and 10 to 100 nM in assay [2].

Regarding `Cc1nocc1-c1ccc2c(=O)n(Cc3cccc(C(=O)NCCN4CCN(C)CC4)c3)ccc2c1` [Compound 70], the IC50 in assay [1] and in assay [2] was less than 10 nM each time.

As to `CC(C)N1CCC(CNC(=O)c2cccc(Cn3ccc4cc(N5CCOCC5)ccc4c3=O)c2)CC1` [Compound 223], the IC50 was in the range of 101 to 500 nM in assay [1] and 10 to 100 nM in assay [2].

For the compound `CNC(=O)c1cc(F)cc([C@@H](C)n2cnc3cc(-c4cn[nH]c4C(F)F)ccc3c2=O)c1` [Compound 463], the results for the IC50 in assay [1] and in assay [2] were 11 to 100 nM and less than 10 nM, respectively.

Consider `CNC(=O)c1cccc(Cn2ccc3cc(-c4cn[nH]c4C(F)F)ncc3c2=O)c1` [Compound 237], for which the IC50 in assay [1] was 11 to 100 nM; in assay [2] it was less than 10 nM.

For the compound `O=C(NC1CCN(CC(F)F)CC1)c1cccc(Cn2ccc3cc(-c4c[nH]nc4C(F)(F)F)ccc3c2=O)c1` [Compound 49], the figures for the half-maximal inhibitory concentration (IC50) in assay [1] and in assay [2] were 101 to 500 nM and less than 10 nM, respectively.

Turning to `CNC(=O)c1cccc(C(C)n2ccc3cc(-c4conc4C)ccc3c2=O)c1` (centres unmarked) [Compound 309], the IC50 in assay [1] was 11 to 100 nM; in assay [2], less than 10 nM.

For `COc1cc(F)cc(Cn2cnc3cc(-c4c[nH]nc4Cl)ccc3c2=O)c1` [Compound 361], the IC50 in assay [1] is 11 to 100 nM; in assay [2] it was less than 10 nM.

On to `O=c1c2ccc(-c3c[nH]nc3Cl)cc2ccn1Cc1cccc(O)c1` [Compound 20], for which the concentration for half-maximal inhibition (IC50) in assay [1] and in assay [2] was less than 10 nM each time.

As for `COc1cccc(C(CN)n2cnc3cc(-c4cn[nH]c4C)ccc3c2=O)c1` (centres unmarked) [Compound 498], the half-maximal inhibitory concentration (IC50) in assay [1] and in assay [2] was less than 10 nM throughout.

Consider `O=c1c2ccc(-c3ccncc3)cc2ncn1C(CO)c1cccc(Cl)c1` (centres unmarked) [Compound 483, 3-(1-(3-chlorophenyl)-2-hydroxyethyl)-7-(pyridin-4-yl)quinazolin-4(3H)-one], for which the IC50 in assay [1] lay in the range of 101 to 500 nM; in assay [2], 10 to 100 nM.

`O=c1c2ccc(-c3ccncc3)cc2ccn1Cc1cccc(O)c1` [Compound 23]: the IC50 is more than 501 nM in assay [1] and 100 to 500 nM in assay [2].

Regarding `Cn1ccc(NC(=O)c2cccc(Cn3ccc4cc(-c5cn[nH]c5C(F)(F)F)ccc4c3=O)c2)n1` [Compound 43], the figures for the half-inhibitory concentration (IC50) in assay [1] and in assay [2] were 11 to 100 nM and less than 10 nM, respectively.

Take `Cc1nocc1-c1ccc2c(=O)n(Cc3cccc(C(=O)Nc4nc5c(s4)CCNC5)c3)ccc2c1` [Compound 93]: the half-inhibitory concentration (IC50) in assay [1] and in assay [2] was less than 10 nM in each case.

Regarding `CNC(=O)c1cccc(C(C)n2ccc3cc(-c4cn[nH]c4C(F)F)ccc3c2=O)c1` (centres unmarked) [Compound 287], the IC50 is 11 to 100 nM in assay [1] and less than 10 nM in assay [2].

As to `CNC(=O)c1cccc(Cn2cc(C(C)O)c3cc(-c4conc4C)ccc3c2=O)c1` (centres unmarked) [Compound 537], the IC50 in assay [1] is 11 to 100 nM; in assay [2] it was less than 10 nM.

Consider `Cc1nocc1-c1ccc2c(=O)n(Cc3cccc(C(=O)NC(C)C)c3)cnc2c1` [Compound 414], for which the IC50 in assay [1] fell in the range of 101 to 500 nM; in assay [2], 10 to 100 nM.
